Columns and labels:
Type in all cases: functional, Homo sapiens
Parameters in all cases: dose or concentration left out as unconfirmed
Colon cancer organoid [1] = assay: Optimized Dual-Glo assay to identify co-culture induced drug vulnerabilities using donated chemical probes and chemogenomics kinase set in O20 CRC organoid and F20 CAF mono and co-culture. […] Cell viability is reported both mono and co-culture models.
Colon cancer organoid [2] = assay: Optimized Dual-Glo assay to identify co-culture induced drug vulnerabilities using donated chemical probes and chemogenomics kinase set in O14 CRC organoid and F14 CAF mono and co-culture. […] Cell viability is reported both mono and co-culture models.
Colon cancer organoid [3] = assay: Optimized Dual-Glo assay to identify co-culture induced drug vulnerabilities using donated chemical probes and chemogenomics kinase set in O06 CRC organoid and F06 CAF mono and co-culture. […] Cell viability is reported both mono and co-culture models.
[4] = Culture type Co-Culture, Transduced with Lucferase2-P2A-EGFP lentivirus
[5] = Culture type Co-Culture, Transduced with Renilla-dsRed lentivirus
[6] = Culture type Mono-Culture, Transduced with Lucferase2-P2A-EGFP lentivirus
[7] = Culture type Mono-Culture, Transduced with Renilla-dsRed lentivirus

Row | Structure (SMILES) | Cell Viability (Colon cancer organoid [1]; [4]) [%] | Cell Viability (Colon cancer organoid [1]; [5]) [%] | Cell Viability (Colon cancer organoid [1]; [6]) [%] | Cell Viability (Colon cancer organoid [1]; [7]) [%] | Cell Viability (Colon cancer organoid [2]; [4]) [%] | Cell Viability (Colon cancer organoid [2]; [5]) [%] | Cell Viability (Colon cancer organoid [2]; [6]) [%] | Cell Viability (Colon cancer organoid [2]; [7]) [%] | Cell Viability (Colon cancer organoid [3]; [4]) [%] | Cell Viability (Colon cancer organoid [3]; [5]) [%] | Cell Viability (Colon cancer organoid [3]; [6]) [%] | Cell Viability (Colon cancer organoid [3]; [7]) [%]
1 | COc1cc(Nc2nccc(-c3cnn4nc(OC)ccc34)n2)cc(C(F)(F)F)c1 | 11.0854 | 189.711 | 12.7509 | 71.1906 | 8.865 | 107.014 | 18.5626 | 63.2458 | 25.4978 | 199.418 | 18.9413 | 49.3331
2 | COc1cc(-c2cn([C@H]3CCc4c(F)cccc4N(CC(F)(F)F)C3=O)nn2)ccc1-n1cnc(C)c1 | 119.382 | 109.286 | 102.589 | 90.6954 | 75.4426 | 112.422 | 84.8132 | 97.4006 | 117.399 | 118.336 | 87.9333 | 111.054
3 | CCc1cc2cc(NS(=O)(=O)c3ccc(C#N)cc3)ccc2n(CC)c1=O | 195.321 | 99.0217 | 112.066 | 92.4545 | 89.9895 | 94.6782 | 98.1459 | 101.615 | 88.2132 | 102.933 | 126.115 | 101.813
4 | CC(C)(O)[C@H](F)CN1Cc2cc(NC(=O)c3cnn4cccnc34)c(N3CCOCC3)cc2C1=O | 123.767 | 88.3121 | 99.4921 | 83.0265 | 134.835 | 74.5238 | 106.331 | 78.3332 | 120.796 | 89.8431 | 75.3772 | 93.3836
5 | CN(C)C(=O)c1ccc(-c2cc(C(=O)N[C@@H]3CCc4ccccc43)no2)cc1O | 98.4389 | 104.475 | 121.813 | 120.44 | 73.2649 | 147.75 | 80.1245 | 134.73 | 113.879 | 93.2478 | 92.6679 | 134.315
6 | COc1cc(-c2cn([C@H]3CCc4ccccc4N(CC(F)(F)F)C3=O)nn2)ccc1-n1ccc(C)n1 | 70.0794 | 119.033 | 80.8006 | 95.6811 | 109.774 | 96.1466 | 102.384 | 99.9901 | 93.4988 | 122.107 | 86.5665 | 106.482
7 | C=CC(=O)Nc1ccc2[nH]c(=O)n(C3CCN(C(=O)c4ccc(-c5nc6cc[nH]c(=O)c6cc5-c5ccccc5)cc4)CC3)c2c1 | 101.159 | 80.5582 | 103.07 | 78.5683 | 111.176 | 112.94 | 102.423 | 83.7994 | 100.634 | 129.997 | 117.336 | 96.7859
8 | CN(C)C(=O)c1ccc(-c2cc(C(=O)N(C)C3CCCC3)no2)cc1O | 121.535 | 110.433 | 107.717 | 123.756 | 78.738 | 108.435 | 99.3256 | 115.997 | 126.057 | 129.278 | 114.98 | 129.58
9 | CCN(Cc1ccc(Cl)cc1)c1ncc(C(=O)NCCCN2CCCC2=O)c(NC2CCCC2)n1 | 67.2116 | 104.655 | 126.603 | 126.47 | 82.1387 | 108.641 | 123.72 | 100.116 | 130.769 | 112.754 | 126.765 | 120.519
10 | c1ccc2oc(-c3csc(C4CCN(Cc5nc6ncccc6[nH]5)CC4)n3)cc2c1 | 55.8408 | 105.216 | 98.8646 | 99.5308 | 119.834 | 111.13 | 91.6979 | 94.4275 | 118.221 | 124.83 | 91.0093 | 102.554
11 | CN(C(=O)c1cnn2cccnc12)c1cc2c(cc1N1CCOCC1)C(=O)N(C[C@@H](F)C(C)(C)O)C2 | 85.0124 | 89.8275 | 94.3235 | 98.269 | 89.5893 | 113.489 | 112.103 | 103.195 | 93.6773 | 65.3185 | 72.0703 | 97.8487
12 | COc1cc(Nc2nc(C)cc(-c3cnn4nc(OC)ccc34)n2)cc(C(F)(F)F)c1 | 136.021 | 99.6244 | 133.384 | 109.532 | 103.629 | 105.362 | 103.076 | 99.2277 | 131.373 | 124.179 | 105.332 | 118.145
13 | CCOc1ccc(S(=O)(=O)Nc2ccc(Cl)cc2C#Cc2cnc(C(=O)[O-])cc2OC)c2ncccc12.[K+] | 109.87 | 117.362 | 101.299 | 92.0089 | 128.517 | 94.7736 | 96.9622 | 95.2003 | 117.764 | 113.31 | 103.254 | 83.0425
14 | CC1=CC(C)=[N+]2C1=C(CCCCc1cn(CC(=O)N3CCc4nc(NC(=O)[C@H]5CCN(C#N)C5)sc4C3)nn1)c1c(C)cc(C)n1[B-]2(F)F | 77.2227 | 101.216 | 73.7517 | 82.644 | 88.5952 | 139.238 | 60.7776 | 90.2828 | 125.029 | 111.523 | 94.7301 | 81.9832
